Assays:
[1] = target: Serine/threonine-protein kinase 24 (Homo sapiens, UniProt Q9Y6E0)
[2] = target: T1, Serine/threonine-protein kinase Nek1 (Homo sapiens, UniProt Q96PY6)
T1 sequence (Q96PY6 whole entry): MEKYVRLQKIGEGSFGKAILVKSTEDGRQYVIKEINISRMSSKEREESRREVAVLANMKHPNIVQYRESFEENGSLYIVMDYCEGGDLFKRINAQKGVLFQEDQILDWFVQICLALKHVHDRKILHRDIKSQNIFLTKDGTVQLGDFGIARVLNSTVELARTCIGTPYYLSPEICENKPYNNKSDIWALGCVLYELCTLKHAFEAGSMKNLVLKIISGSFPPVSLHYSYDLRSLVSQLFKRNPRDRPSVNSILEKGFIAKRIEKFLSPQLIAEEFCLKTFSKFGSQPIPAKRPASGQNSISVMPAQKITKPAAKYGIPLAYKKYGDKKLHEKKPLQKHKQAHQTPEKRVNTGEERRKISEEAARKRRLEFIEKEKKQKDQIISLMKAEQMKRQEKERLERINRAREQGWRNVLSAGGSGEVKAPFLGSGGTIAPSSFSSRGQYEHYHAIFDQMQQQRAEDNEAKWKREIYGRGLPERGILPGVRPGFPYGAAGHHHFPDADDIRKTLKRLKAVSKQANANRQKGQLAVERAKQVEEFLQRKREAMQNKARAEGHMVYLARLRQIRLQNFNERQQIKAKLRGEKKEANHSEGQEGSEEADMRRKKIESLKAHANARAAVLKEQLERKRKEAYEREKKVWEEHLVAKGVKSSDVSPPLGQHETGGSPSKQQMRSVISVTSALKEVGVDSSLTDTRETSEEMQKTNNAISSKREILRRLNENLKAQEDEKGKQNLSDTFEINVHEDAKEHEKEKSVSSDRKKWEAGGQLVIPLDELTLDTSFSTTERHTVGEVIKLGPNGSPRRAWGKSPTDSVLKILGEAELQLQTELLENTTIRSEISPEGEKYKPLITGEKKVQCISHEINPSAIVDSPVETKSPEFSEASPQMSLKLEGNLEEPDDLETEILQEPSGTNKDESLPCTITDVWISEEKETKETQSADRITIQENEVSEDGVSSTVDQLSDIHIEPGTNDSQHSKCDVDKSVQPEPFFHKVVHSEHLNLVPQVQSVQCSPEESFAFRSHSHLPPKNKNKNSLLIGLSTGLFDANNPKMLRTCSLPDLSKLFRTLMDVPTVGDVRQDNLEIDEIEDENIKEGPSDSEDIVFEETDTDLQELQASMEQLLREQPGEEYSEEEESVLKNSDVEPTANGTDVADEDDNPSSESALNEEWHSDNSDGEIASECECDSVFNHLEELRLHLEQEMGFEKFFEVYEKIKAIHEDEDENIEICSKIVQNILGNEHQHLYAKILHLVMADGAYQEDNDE

[3] = target: Ribosomal protein S6 kinase alpha-5 (Homo sapiens, UniProt O75582)
Ephrin type-B receptor 1 = target: T2, Ephrin type-B receptor 1 (Homo sapiens, UniProt P54762)
T2 sequence (P54762 whole entry): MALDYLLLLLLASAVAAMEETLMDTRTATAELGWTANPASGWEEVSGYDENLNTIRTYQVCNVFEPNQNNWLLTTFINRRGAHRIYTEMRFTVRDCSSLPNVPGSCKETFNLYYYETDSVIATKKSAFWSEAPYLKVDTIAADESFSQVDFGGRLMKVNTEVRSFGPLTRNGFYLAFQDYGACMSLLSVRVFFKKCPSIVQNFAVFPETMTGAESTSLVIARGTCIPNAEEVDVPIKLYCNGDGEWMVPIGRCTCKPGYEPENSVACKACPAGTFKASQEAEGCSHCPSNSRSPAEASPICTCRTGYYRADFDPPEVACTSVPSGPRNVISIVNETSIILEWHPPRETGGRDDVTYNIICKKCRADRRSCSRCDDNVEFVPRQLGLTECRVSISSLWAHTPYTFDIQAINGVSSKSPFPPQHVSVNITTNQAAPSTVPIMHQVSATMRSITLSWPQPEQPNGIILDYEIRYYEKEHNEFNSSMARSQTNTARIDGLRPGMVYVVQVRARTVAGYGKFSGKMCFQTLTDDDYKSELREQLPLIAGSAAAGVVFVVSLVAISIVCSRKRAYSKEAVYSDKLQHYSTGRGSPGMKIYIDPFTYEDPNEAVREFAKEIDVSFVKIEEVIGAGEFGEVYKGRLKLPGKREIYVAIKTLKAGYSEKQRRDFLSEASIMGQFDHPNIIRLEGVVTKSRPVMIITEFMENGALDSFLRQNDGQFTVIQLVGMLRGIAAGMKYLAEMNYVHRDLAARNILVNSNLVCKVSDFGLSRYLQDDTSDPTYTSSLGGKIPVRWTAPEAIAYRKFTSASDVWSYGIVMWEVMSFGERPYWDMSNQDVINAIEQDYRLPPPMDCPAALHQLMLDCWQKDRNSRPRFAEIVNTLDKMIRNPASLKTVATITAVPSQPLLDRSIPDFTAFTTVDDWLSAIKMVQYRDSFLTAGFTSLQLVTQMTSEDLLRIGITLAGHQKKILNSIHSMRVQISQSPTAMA

[4] = target: Myosin light chain kinase 2, skeletal/cardiac muscle (Homo sapiens, UniProt Q9H1R3)
[5] = target: Serine/threonine-protein kinase pim-2 (Homo sapiens, UniProt Q9P1W9)
[6] = target: Protein kinase C delta type (Homo sapiens, UniProt Q05655)
[7] = target: Tyrosine-protein kinase Blk (Homo sapiens, UniProt P51451)
[8] = target: Calcium/calmodulin-dependent protein kinase kinase 2 (Homo sapiens, UniProt Q96RR4)
[9] = target: Receptor tyrosine-protein kinase erbB-2 (Homo sapiens, UniProt P04626)
Chain of Receptor tyrosine-protein kinase erbB-2 (P04626 whole entry): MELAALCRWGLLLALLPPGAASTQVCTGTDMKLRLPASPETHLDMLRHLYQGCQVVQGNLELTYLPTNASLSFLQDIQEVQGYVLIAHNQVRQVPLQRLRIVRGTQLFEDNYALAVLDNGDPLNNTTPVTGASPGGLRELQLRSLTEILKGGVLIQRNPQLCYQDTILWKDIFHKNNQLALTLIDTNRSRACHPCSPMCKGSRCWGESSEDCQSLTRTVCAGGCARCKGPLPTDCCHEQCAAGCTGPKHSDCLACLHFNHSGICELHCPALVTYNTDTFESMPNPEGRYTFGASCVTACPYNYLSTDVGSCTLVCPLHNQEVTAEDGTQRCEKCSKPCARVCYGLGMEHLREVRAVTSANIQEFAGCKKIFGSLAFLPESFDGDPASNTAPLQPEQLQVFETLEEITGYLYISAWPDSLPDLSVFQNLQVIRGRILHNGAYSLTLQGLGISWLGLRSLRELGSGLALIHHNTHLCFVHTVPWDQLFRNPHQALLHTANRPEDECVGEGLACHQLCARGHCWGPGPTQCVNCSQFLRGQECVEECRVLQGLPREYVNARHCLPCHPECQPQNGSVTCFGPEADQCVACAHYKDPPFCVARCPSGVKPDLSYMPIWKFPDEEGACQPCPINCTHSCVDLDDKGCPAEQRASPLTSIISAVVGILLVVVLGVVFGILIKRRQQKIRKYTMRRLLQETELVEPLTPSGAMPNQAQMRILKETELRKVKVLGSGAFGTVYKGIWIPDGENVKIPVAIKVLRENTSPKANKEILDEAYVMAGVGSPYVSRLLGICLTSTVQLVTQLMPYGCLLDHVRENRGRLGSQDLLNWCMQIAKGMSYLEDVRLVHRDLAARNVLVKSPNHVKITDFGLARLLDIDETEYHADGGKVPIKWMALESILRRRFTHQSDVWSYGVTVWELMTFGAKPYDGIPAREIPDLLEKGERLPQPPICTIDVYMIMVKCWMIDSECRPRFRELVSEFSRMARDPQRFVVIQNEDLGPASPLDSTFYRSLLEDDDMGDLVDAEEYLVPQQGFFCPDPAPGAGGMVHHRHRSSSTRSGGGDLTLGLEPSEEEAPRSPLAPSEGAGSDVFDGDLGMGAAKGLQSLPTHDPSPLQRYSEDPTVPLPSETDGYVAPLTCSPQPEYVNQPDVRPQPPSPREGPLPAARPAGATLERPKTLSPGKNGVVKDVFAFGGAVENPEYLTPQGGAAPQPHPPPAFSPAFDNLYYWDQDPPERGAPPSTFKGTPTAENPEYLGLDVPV

Chain of Ribosomal protein S6 kinase alpha-5 (O75582 whole entry): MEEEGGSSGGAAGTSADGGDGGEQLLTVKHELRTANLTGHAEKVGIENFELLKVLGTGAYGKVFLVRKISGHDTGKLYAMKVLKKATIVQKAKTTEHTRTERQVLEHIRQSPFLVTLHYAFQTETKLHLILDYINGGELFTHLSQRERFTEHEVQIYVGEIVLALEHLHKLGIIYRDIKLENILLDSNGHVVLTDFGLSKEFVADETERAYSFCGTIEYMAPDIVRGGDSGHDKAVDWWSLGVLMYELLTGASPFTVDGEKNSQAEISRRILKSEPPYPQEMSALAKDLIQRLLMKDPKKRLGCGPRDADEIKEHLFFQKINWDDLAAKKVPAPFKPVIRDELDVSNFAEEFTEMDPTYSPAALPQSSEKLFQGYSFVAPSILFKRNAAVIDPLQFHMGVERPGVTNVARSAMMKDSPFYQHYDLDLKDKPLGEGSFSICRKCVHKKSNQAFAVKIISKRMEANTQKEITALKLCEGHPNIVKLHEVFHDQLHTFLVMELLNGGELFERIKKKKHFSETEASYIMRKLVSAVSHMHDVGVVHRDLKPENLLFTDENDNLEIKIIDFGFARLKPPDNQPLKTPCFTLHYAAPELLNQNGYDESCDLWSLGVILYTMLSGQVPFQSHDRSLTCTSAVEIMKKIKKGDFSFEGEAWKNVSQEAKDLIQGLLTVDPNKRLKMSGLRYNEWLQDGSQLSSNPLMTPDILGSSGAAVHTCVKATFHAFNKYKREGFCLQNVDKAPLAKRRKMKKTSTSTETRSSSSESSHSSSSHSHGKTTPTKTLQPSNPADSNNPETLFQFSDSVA
Chain of Serine/threonine-protein kinase pim-2 (Q9P1W9 whole entry): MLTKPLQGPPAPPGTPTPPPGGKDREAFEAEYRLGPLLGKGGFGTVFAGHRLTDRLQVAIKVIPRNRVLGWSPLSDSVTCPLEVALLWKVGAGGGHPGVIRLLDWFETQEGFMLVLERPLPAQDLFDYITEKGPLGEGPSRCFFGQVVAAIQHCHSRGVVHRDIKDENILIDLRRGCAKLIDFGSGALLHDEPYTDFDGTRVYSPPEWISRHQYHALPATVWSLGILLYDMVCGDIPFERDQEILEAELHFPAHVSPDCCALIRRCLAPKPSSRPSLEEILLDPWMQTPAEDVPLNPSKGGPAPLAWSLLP
Chain of Serine/threonine-protein kinase 24 (Q9Y6E0 whole entry): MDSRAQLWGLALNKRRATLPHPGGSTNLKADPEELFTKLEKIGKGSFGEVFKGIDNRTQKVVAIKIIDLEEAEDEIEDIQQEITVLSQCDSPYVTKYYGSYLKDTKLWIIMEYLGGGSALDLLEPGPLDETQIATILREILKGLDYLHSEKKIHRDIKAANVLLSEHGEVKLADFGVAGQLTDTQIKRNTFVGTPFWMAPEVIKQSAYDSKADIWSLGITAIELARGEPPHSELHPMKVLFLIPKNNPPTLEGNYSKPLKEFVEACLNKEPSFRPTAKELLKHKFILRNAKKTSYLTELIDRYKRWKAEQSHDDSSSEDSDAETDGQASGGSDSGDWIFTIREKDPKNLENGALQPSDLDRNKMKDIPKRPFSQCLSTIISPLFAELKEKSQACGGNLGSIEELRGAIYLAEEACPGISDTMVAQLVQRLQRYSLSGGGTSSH
Chain of Tyrosine-protein kinase Blk (P51451 whole entry): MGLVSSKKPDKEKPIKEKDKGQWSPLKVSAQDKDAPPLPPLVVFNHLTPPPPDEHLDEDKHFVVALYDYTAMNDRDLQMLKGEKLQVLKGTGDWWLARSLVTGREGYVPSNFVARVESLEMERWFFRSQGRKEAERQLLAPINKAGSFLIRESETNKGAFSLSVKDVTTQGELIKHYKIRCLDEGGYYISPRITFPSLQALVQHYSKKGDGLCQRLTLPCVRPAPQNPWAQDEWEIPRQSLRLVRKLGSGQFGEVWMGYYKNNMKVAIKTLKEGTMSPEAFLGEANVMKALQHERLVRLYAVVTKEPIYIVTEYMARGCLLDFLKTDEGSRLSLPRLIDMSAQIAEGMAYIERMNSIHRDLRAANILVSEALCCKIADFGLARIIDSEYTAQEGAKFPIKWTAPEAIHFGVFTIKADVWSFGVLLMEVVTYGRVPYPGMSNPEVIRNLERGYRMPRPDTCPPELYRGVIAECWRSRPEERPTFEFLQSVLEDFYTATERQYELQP
Chain of Myosin light chain kinase 2, skeletal/cardiac muscle (Q9H1R3 whole entry): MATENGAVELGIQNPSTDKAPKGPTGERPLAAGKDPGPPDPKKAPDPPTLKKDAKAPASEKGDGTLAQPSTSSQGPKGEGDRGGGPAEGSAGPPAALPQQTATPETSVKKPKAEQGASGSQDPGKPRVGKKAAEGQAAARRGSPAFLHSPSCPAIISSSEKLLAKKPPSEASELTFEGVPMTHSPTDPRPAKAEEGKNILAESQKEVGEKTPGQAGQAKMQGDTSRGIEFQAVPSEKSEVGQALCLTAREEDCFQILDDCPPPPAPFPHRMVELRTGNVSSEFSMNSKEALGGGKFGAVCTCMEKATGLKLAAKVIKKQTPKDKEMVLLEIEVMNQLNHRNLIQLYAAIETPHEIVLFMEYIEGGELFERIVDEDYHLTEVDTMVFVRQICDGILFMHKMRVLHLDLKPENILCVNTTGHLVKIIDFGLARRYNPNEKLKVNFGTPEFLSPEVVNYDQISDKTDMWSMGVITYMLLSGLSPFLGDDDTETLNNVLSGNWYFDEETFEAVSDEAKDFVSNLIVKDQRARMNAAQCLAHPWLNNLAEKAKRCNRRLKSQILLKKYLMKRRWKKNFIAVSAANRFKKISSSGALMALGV
Chain of Calcium/calmodulin-dependent protein kinase kinase 2 (Q96RR4 whole entry): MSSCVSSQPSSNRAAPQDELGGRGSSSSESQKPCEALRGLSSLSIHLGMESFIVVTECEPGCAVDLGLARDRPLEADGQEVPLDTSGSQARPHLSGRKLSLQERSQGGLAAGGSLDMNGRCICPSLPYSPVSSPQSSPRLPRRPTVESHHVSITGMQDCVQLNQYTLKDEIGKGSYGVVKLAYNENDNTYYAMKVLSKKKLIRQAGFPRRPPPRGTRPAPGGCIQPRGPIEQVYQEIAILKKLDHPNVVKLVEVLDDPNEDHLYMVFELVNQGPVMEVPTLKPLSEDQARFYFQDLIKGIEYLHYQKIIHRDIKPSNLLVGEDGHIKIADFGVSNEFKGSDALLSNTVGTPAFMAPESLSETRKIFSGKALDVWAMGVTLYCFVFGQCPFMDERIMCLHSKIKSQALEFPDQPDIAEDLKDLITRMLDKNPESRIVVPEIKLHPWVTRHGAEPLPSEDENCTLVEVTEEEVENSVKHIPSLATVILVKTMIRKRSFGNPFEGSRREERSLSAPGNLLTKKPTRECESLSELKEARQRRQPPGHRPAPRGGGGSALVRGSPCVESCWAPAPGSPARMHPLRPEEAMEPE

Row | Structure (SMILES) | Kd [1] | Kd [2] | Kd [3] | Kd (Ephrin type-B receptor 1) | Kd [4] | Kd [5] | Kd [6] | Kd [7] | Kd [8] | Kd [9]
1 | CCN1CCN(Cc2ccc(NC(=O)Nc3ccc(Oc4cc(NC)ncn4)cc3)cc2C(F)(F)F)CC1 [AST-487] | > 10 µM | > 10 µM | – | – | – | – | – | – | – | –
2 | COCC(=O)NC/C=C/c1ccc2ncnc(Nc3ccc(Oc4ccc(C)nc4)c(C)c3)c2c1 [CP-724714] | > 10 µM | > 10 µM | > 10 µM | > 10 µM | > 10 µM | > 10 µM | > 10 µM | > 10 µM | > 10 µM | –
3 | Nc1nc(Nc2ccc(S(N)(=O)=O)cc2)nn1C(=O)c1c(F)cccc1F [JNJ-7706621] | – | > 10 µM | > 10 µM | > 10 µM | > 10 µM | > 10 µM | 4.5 µM | > 10 µM | – | > 10 µM
4 | CCOc1cc2ncc(C#N)c(Nc3ccc(F)c(Cl)c3)c2cc1NC(=O)/C=C/CN(C)C [PELITINIB] | 2.1 µM | – | > 10 µM | – | – | > 10 µM | – | 0.078 µM | – | 0.5 µM
5 | Oc1ccc(-c2nc(-c3ccncc3)c(-c3ccc(F)cc3)[nH]2)cc1 [SB-202190] | > 10 µM | > 10 µM | > 10 µM | > 10 µM | > 10 µM | > 10 µM | > 10 µM | > 10 µM | > 10 µM | > 10 µM
6 | NC(=O)c1ccc(-c2nc(-c3ccc4c(c3)OCO4)c(-c3ccccn3)[nH]2)cc1 [SB-431542] | > 10 µM | > 10 µM | > 10 µM | > 10 µM | > 10 µM | > 10 µM | > 10 µM | > 10 µM | > 10 µM | > 10 µM

Source: ChEMBL document CHEMBL1150977, “A quantitative analysis of kinase inhibitor selectivity” (Nat Biotechnol, 2008)
